Measured values as given in patent US5130320A, “Glycosidase inhibiting 1,3-dideoxy-3-fluoronojirimycin” (Monsanto Company, priority 1991, dated 1992).

Columns and labels:
Assay type in all cases: biochemical
[1] = molecular target: T1, yeast α-glucosidase (Saccharomyces cerevisiae, UniProt P53341); test: α-Glucosidase inhibition assay, pH 7.4; details: read-out: ALPHA GLUCOSIDASE inhibition; for inhibition at 1000 µM: @ 1 mM; for inhibition at 5000 µM: @ 5 mM
T1 construct: purchased Sigma
Protocol: (§1) The glycosidase inhibition activity is determined by modifying an assay procedure described in Evans et al, Phytochemistry, 22, pp. 768-770 (1983). More particularly, yeast α-glucosidase and almond β-glucosidase activities were measured by the Evans et al method which was modified by assaying activities at pH 7.4 in N-2-hydroxyethylpiperazine-N-2-ethane sulfonic acid (HEPES) buffer, measuring in 96 well microtiter plates, and including 10% DMSO in control and test samples.
(§2) The release of p-nitrophenol from the substrate p-nitrophenylglycoside was measured spectrophotometrically in the presence and absence of test compound. Each assay included a known inhibitor of the enzyme as a standard. IC50 values were determined for compounds which inhibited the enzymes more than 50% at a 1 millimolar concentration.
To 100 ul 50 mM HEPES buffer, pH 7.4, in a microtiter plate, 20 ul test compound in DMSO (DMSO alone in control)and 40 ul (0.013 units) yeast α-glucosidase (Sigma) in HEPES buffer were added and pre-incubated at room temperature 15 minutes. 40 ul 1.25 mM p-nitrophenyl-α-D-gl-ucopyranoside (Sigma) in HEPES buffer, as substrate was added and the absorbance change at 405 nm was monitored in a Biotek EIA Autoreader. Absorption change was measured at 15 to 25 minutes (reaction was linear for at least 30 minutes). Each sample was tested in triplicate. IC50 values were determined from the linear portion of the log concentration vs percent inhibition curve obtained from a minimum of 3 points. Deoxynojirimycin was used as standard inhibitor.

[2] = tested on: almond β-glucosidase; test: β-Glucosidase inhibition assay, pH 4.8
Protocol: as §1, §2
To 100 ul 50 mM sodium citrate buffer, pH 4.8, in a microtiter plate, 20 ul test compound in DMSO (DMSO alone in control) and 20 ul (0.017 units) β-glucosidase (Sigma) in citrate buffer were added and pre-incubated at room temperature 15 minutes. 20 ul 2.50 mM p-nitrophenyl-β-D-glucopyranside in citrate buffer was added as substrate and incubated at room temperature minutes (reaction is linear for at least 30 minutes). 50 ul 0.4 M NaOH was added and the absorption change at 405 nm was determined utilizing a Biotek EIA Autoreader. Each sample was tested in triplicate. IC50 values were determined from the linear portion of the log concentration vs percent inhibition curve obtained from a minimum of 3 points. Castanospermine was used as standard inhibitor.

[3] = tested on: almond β-glucosidase; test: β-Glucosidase inhibition assay, pH 7.4
Protocol: as §1, §2
To 100 ul 50 mM HEPES buffer, pH 7.4, in a microtiter plate, 20 ul test compound in DMSO (DMSO alone in control) and 40 ul (0.136 units) β-glucosidase (Sigma) in HEPES buffer were added and pre-incubated at room temperature 15 minutes. 40 ul 1.25 mM p-nitrophenyl-β-D-glucopyranoside in HEPES buffer was added as substrate and the absorbance change at 405 nm was monitored utilizing a Biotek EIA Autoreader. Absorption change was measured at 15 to 25 minutes (reaction is linear for at least 30 minutes). Each sample was tested in triplicate. IC50 values were determined from the linear portion of the log concentration vs percent inhibition curve obtained from a minimum of 3 points. Castanospermine was used as standard inhibitor.

[4] = molecular target: T2, ALPHA MANNOSIDASE (Canavalia ensiformis, UniProt C0HJB3); test: Alpha mannosidase inhibition, pH 4.5; details: for inhibition at 1000 µM: @ 1 mM; for inhibition at 5000 µM: @ 5 mM
T2 sequence (C0HJB3 1-981): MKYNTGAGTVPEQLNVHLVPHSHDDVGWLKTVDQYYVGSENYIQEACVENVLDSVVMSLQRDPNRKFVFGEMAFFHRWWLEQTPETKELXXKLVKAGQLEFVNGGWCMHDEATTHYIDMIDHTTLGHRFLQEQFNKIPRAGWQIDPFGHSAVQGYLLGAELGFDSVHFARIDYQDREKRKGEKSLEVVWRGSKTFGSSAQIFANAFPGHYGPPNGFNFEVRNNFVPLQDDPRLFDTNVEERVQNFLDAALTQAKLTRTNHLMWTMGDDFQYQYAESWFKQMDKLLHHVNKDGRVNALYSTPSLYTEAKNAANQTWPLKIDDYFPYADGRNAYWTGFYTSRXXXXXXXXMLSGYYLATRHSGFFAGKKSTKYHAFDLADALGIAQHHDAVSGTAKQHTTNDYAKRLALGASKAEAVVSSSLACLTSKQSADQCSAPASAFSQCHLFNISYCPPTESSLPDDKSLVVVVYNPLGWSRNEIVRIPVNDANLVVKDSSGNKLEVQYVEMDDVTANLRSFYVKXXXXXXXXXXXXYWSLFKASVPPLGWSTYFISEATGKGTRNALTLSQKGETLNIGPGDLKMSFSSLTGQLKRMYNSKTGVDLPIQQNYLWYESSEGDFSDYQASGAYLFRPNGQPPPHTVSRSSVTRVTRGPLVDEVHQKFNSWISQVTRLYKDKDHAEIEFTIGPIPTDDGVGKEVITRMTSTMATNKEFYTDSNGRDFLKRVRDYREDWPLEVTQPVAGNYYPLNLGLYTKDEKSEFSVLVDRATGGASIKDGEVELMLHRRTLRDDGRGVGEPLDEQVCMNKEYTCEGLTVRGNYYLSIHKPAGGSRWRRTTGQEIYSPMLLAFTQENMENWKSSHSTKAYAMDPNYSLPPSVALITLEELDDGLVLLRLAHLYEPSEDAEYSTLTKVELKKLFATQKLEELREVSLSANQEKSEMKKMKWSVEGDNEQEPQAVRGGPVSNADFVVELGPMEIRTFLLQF

[5] = molecular target: T2, ALPHA MANNOSIDASE; test: Alpha mannosidase inhibition, pH 7.4; details: for inhibition at 1000 µM: @ 1 mM; for inhibition at 5000 µM: @ 5 mM

T1 sequence (P53341 whole entry): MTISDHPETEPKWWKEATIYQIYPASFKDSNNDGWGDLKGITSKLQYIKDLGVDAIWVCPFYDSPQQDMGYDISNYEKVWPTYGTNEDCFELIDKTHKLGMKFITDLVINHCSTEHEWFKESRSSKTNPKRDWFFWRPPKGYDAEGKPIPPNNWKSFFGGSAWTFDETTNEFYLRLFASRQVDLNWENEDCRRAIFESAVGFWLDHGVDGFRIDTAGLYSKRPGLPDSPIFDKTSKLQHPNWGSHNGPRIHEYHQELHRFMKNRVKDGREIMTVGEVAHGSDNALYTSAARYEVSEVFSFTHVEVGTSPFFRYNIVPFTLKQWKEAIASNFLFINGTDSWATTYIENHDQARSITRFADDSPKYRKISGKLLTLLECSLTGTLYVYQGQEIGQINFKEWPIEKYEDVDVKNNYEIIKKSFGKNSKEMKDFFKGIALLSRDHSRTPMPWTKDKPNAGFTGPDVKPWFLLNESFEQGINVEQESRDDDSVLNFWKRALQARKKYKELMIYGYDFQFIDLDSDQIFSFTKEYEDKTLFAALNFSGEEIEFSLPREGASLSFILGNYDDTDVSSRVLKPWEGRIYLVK

In the case of `OC[C@H]1NC[C@H](O)[C@@H](F)[C@@H]1O` [Compound 1, 1,3-dideoxy-3-fluoronojirimycin], the inhibition at 1000 µM [1] is reported as 26%, the inhibition at 5000 µM [1] is reported as 63% and the “BETA GLUCOSIDASE-pH 4.8 inhibition” value ([2]; @ 1 mM) is reported as 4%. For the same compound, the “BETA GLUCOSIDASE-pH 4.8 inhibition” value ([2]; @ 5 mM) was 10%, the “BETA GLUCOSIDASE-pH 7.4 inhibition” value ([3]; @ 1 mM) was 3% and the “BETA GLUCOSIDASE-pH 7.4 inhibition” value ([3]; @ 5 mM) was 24%. For the same compound, the inhibition at 1000 µM [4] was 11%, the inhibition at 5000 µM [4] was 19% and the inhibition at 1000 µM [5] was 10%. It also gave an inhibition at 5000 µM [5] of 30%.
With `CCCCN1C[C@H](O)[C@@H](F)[C@H](O)[C@H]1CO` [Compound 2, N-butyl-1,3-dideoxy-3-fluoronojirimycin] the inhibition at 1000 µM [1] was 11%, the inhibition at 5000 µM [1] was 18% and the “BETA GLUCOSIDASE-pH 4.8 inhibition” value ([2]; @ 1 mM) was 8%. The “BETA GLUCOSIDASE-pH 4.8 inhibition” value ([2]; @ 5 mM) was -10%, the “BETA GLUCOSIDASE-pH 7.4 inhibition” value ([3]; @ 1 mM) was 0% and the “BETA GLUCOSIDASE-pH 7.4 inhibition” value ([3]; @ 5 mM) was 2%. It also gave an inhibition at 1000 µM [4] of 6%, an inhibition at 5000 µM [4] of 5% and an inhibition at 1000 µM [5] of 7%. The inhibition at 5000 µM [5] was 11%.
